The values that follow come from ChEMBL document CHEMBL5726172, “Spiro-cyclic amine derivatives as S1P modulators” (2019).

As a reminder, the EC50 is the concentration at which the effect is half-maximal.

The target of the assay is Sphingosine 1-phosphate receptor 5 (Homo sapiens, UniProt Q9H228). Nature of the assay: In Vitro Functional Activity (Agonism) on Human S1P5 Receptors: The CHO-human-S1P5-Aeqorin assay was bought from Euroscreen, Brussels (Euroscreen, Technical dossier, Human Lysophospholid S1P5 (Edg8) receptor, DNA clone and CHO AequoScreen™ recombinant cell-line, catalog no: ES-593-A, September 2006). Human-S1P5-Aequorin cells express mitochondrial targeted apo-Aequorin. Cells have to be loaded with coelanterazine, in order to reconstitute active Aequorin. After binding of agonists to the human S1P5 receptor the intracellular calcium concentration increases and binding of calcium to the apo-Aequorin/coelenterazine complex leads to an oxidation reaction of coelenterazine, which results in the production of apo-Aequorin, coelenteramide, CO2 and light ([…]max 469 nm). This luminescent response is dependent on the agonist concentration. Luminescence is measured using the MicroBeta Jet (Perkin Elmer). Agonistic effects of compounds are expressed as pEC50. Compounds were tested at a 10 points half log concentration range, and 3 independent experiments were performed in single point's measurements. The format is cell-based. In general terms: Calcium assays in cells follow changes in intracellular calcium, usually with a dye or a luminescent sensor.

Each structure is given as a SMILES string.

Sphingosine 1-phosphate receptor 5, sequence (Q9H228 whole entry): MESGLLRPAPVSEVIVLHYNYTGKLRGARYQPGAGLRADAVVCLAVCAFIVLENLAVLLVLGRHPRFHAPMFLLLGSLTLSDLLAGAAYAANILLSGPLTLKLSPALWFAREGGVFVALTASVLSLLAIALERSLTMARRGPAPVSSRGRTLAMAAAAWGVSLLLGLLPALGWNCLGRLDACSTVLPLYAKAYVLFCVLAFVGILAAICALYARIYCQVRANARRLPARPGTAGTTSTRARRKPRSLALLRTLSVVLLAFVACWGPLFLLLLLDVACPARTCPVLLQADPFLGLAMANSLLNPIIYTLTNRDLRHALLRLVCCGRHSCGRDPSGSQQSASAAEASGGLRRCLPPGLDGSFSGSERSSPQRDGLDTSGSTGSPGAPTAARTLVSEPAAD

In the case of `O=C(O)CCN1CCCC2(COc3cc(OCc4c(Cl)cccc4C(F)(F)F)ccc32)C1` (configuration not stated), the EC50 turned out to be 50.1 nM.

Take `CC(C)c1cccc(F)c1COc1ccc2c(c1)OCC21CCN(CCC(=O)O)CC1`: the EC50 amounted to 50.1 nM.
